According to patent publication US20230346796A1 (priority 2010, published 2023):
≈ marks a conversion by molar mass, not a printed value. Where “and” joins values, the source holds several entries; their conditions need not be identical. Equal values may be shown once. Read-outs that look alike come from different tables or passages of the source.

Experiments:
[1] = Physiologically-based population pharmacokinetic analysis of CNS 7056 (Studies CNS 7056-001 and CNS 7056-002); details: for V3: arterial; for clearance: human, plasma, intravenous
[2] = system: healthy volunteers and patients undergoing a colonoscopy; assay: animal or person; format: in vivo, human; details: for EC50: Homo sapiens, read-out: EC50, theta (RSE%)
[3] = human, in vivo
[4] = system: patients undergoing a colonoscopy; details: for Success rate n/N (%): Phase IIb (Study CNS7056-004); for Time to ready for discharge, Mean (SD): after last injection, first of three consecutive Aldrete scores of ≥ 9; for Time to ready for discharge, Mean (SD) / Time to fully alert, Mean (SD): ITT population; for Time to fully alert, Mean (SD): first of three consecutive MOAA/S scores of 5 after the last injection; for Time to Procedure Start, mean (SD): after initial dose
[5] = human, in vivo; remark: listed apart in the source
procedural sedation [6] = details: Phase II, cited from earlier work
procedural sedation [7] = details: Phase III, cited from earlier work
[8] = Run 142S, Lung/Central, 3 compartments
[9] = Run 144S, Lung/Liver, 4 compartments
[10] = highest dose regimen (8.0/3.0 mg)
[11] = lowest dose regimen (5.0/3.0 mg)
[12] = middle dose regimen (7.0/2.0 mg)

COC(=O)CC[C@@H]1N=C(c2ccccn2)c2cc(Br)ccc2-n2c(C)cnc21 [CNS 7056, 3-[(4S)-8-bromo-1-methyl-6-(2-pyridinyl)-4H-imidazo[1,2-a][1,4]benzodiazepin-4-yl] propionic methyl ester]
Blood/Plasma Cardiac Flow, theta (RSE%) ([1]; Run 128S, Lung, 3 compartments): 173 (3.37) l/h | Central Volume, eta IIV (RSE%) ([1]; Run 128S, Lung, 3 compartments): 146.9 (52.9) % | Central Volume, theta (RSE%) ([1]; Run 128S, Lung, 3 compartments): 1.71 (15.2) I | Deep Volume(5), theta (RSE%) ([1]; Run 128S, Lung, 3 compartments): 23.4 (4.57) I | Deep Volume, eta IIV (RSE%) ([1]; Run 128S, Lung, 3 compartments): 22.55 (9.94) % | Inter-Tissue Clearance(4), theta (RSE%) ([1]; Run 128S, Lung, 3 compartments): 74.6 (3.29) I/h | Inter-Tissue Clearance(5), theta (RSE%) ([1]; Run 128S, Lung, 3 compartments): 25.7 (6.18) I/h | Peripheral Volume(4), theta (RSE%) ([1]; Run 128S, Lung, 3 compartments): 13.5 (9.18) I | Peripheral Volume, eta IIV (RSE%) ([1]; Run 128S, Lung, 3 compartments): 50.10 (18.0) % | Pulmonary Clearance, eta IIV (RSE%) ([1]; Run 128S, Lung, 3 compartments): 14.35 (6.07) % | Pulmonary Clearance, theta (RSE%) ([1]; Run 128S, Lung, 3 compartments): 49.1 (2.02) I/h | Blood/Plasma Cardiac Flow, theta (RSE%) ([1]; Run 135S, Lung, 4 compartments): 174 (3.59) l/h | Central Volume, eta IIV (RSE%) ([1]; Run 135S, Lung, 4 compartments): 190.2 (66.8) % | Central Volume, theta (RSE%) ([1]; Run 135S, Lung, 4 compartments): 1.24 (19.3) I | Deep Volume(5), theta (RSE%) ([1]; Run 135S, Lung, 4 compartments): 23.8 (4.78) I | Deep Volume, eta IIV (RSE%) ([1]; Run 135S, Lung, 4 compartments): 23.44 (10.3) % | Deeper Volume(6), theta (RSE%) ([1]; Run 135S, Lung, 4 compartments): 12 (20.4) I | Inter-Tissue Clearance(4), theta (RSE%) ([1]; Run 135S, Lung, 4 compartments): 68.5 (5.45) I/h | Inter-Tissue Clearance(5), theta (RSE%) ([1]; Run 135S, Lung, 4 compartments): 42 (5.57) I/h | Inter-Tissue Clearance(6), theta (RSE%) ([1]; Run 135S, Lung, 4 compartments): 3.12 (13.2) I/h | Peripheral Volume(4), theta (RSE%) ([1]; Run 135S, Lung, 4 compartments): 8.14 (12.8) I | Peripheral Volume, eta IIV (RSE%) ([1]; Run 135S, Lung, 4 compartments): 71.40 (25.4) % | Pulmonary Clearance, eta IIV (RSE%) ([1]; Run 135S, Lung, 4 compartments): 14.42 (6.13) % | Pulmonary Clearance, theta (RSE%) ([1]; Run 135S, Lung, 4 compartments): 48.7 (2.00) I/h | Blood/Plasma Cardiac Flow, theta (RSE%) [1, 8]: 177 (3.54) l/h | Central Volume, eta IIV (RSE%) [1, 8]: 143.6 (52.2) % | Central Volume, theta (RSE%) [1, 8]: 1.93 (15.8) I | Deep Volume(5), theta (RSE%) [1, 8]: 23.1 (4.58) I | Deep Volume, eta IIV (RSE%) [1, 8]: 22.59 (10.0) % | Extra-pulmonary Clearance, theta (RSE%) [1, 8]: 8.53 (52.4) I/h | Inter-Tissue Clearance(4), theta (RSE%) [1, 8]: 72.4 (3.61) I/h | Inter-Tissue Clearance(5), theta (RSE%) [1, 8]: 25.3 (6.16) I/h | Peripheral Volume(4), theta (RSE%) [1, 8]: 13.4 (9.32) I | Peripheral Volume, eta IIV (RSE%) [1, 8]: 50.48 (18.2) % | Pulmonary Clearance, eta IIV (RSE%) [1, 8]: 17.12 (8.97) % | Pulmonary Clearance, theta (RSE%) [1, 8]: 44.5 (6.11) I/h | Blood/Plasma Cardiac Flow, theta (RSE%) [1, 9]: 175 (2.68) l/h | Central Volume, eta IIV (RSE%) [1, 9]: 368.5 (105.) % | Central Volume, theta (RSE%) [1, 9]: 0.834 (15.8) I | Deep Volume(5), theta (RSE%) [1, 9]: 22.7 (5.28) I | Deep Volume, eta IIV (RSE%) [1, 9]: 24.10 (10.9) % | Deeper Volume(6), theta (RSE%) [1, 9]: 10.9 (16.7) I | Extra-pulmonary Clearance, theta (RSE%) [1, 9]: 6.15 (49.7) I/h | Inter-Tissue Clearance(4), theta (RSE%) [1, 9]: 46.2 (7.27) I/h | Inter-Tissue Clearance(5), theta (RSE%) [1, 9]: 40 (5.12) I/h | Inter-Tissue Clearance(6), theta (RSE%) [1, 9]: 3.07 (15.1) I/h | Peripheral Volume(4), theta (RSE%) [1, 9]: 6.47 (13.5) I | Peripheral Volume, eta IIV (RSE%) [1, 9]: 90.06 (30.2) % | Pulmonary Clearance, eta IIV (RSE%) [1, 9]: 16.22 (7.32) % | Pulmonary Clearance, theta (RSE%) [1, 9]: 45.0 (4.24) I/h | V3 ([1]; 0.65 x weight/70, Geom. Mean (Typical Value)): 0.717 I | V3 ([1]; 0.65 x weight/70, Subject 1210): 0.786 I | V3 ([1]; 0.65 × weight/70, Geom. Mean (Typical Value)): 0.717 L | V3 ([1]; 0.65 × weight/70, Subject 1210): 0.786 L | clearance ([1]; both, Clearance, Geom. Mean (Typical Value)): 819 mL/min | clearance ([1]; both, systemic clearance): ~1000 mL/min | clearance ([1]; Clearance, Subject 1210): 732 mL/min | contribution of the liver to clearance ([1]; modelling): ~10% | pulmonary extraction ratio, and first-pass metabolism ([1]; modelling): approximately 28% | V4 ([1]; peripheral, Subject 1210): 21.59 L | systemic exposure ([1]; typical single dose 7 mg): approximately 0.12 mcg.h/ml | EC50 ([2]; 1 min): 0.332 µg/mL (≈ 0.756 µM) | EC50 ([2]; 2 min): 0.325 µg/mL (≈ 0.74 µM) | EC50 [2]: 0.369 µg/mL (≈ 0.84 µM) | EMAX ([2]; in vivo): 5.0 | EMAX, fitted theta (RSE%) ([2]; in vivo): 4.88 (1.20) and 4.85 (0.87) | EMIN (first line so headed), eta IIV (RSE%) ([2]; in vivo): 29.73 (15.2) and 28.87 (11.7) | EMIN (second line so headed), eta IIV (RSE%) ([2]; in vivo): 94.18 (38.7) | Hill Coefficient (γ), theta (RSE%) ([2]; in vivo): 3.16 (8.82) and 4.64 (8.81) and 3.92 (6.76) and 3.9 (7.10) and 3.93 (6.81) | Hill Coefficient, eta IIV (RSE%) ([2]; in vivo): 54.72 (24.0) % and 57.77 (24.8) % and 50.35 (22.3) % and 51.71 (22.7) % and 48.59 (21.4) % and 59.37 (25.3) % | Hill coefficient ([2]; in vivo): 4.03 and 6.627 | Hill coefficient, eta IIV (RSE%) ([2]; in vivo): 53.17 (23.0) and 69.49 (30.2) | Hill coefficient, theta (RSE%) ([2]; in vivo): 4.20 (7.47) and 4.62 (8.41) | IIV for all three pharmacodynamic parameters (EC50, ke0, Hill coefficient) ([2]; in vivo): approximately 40% | increase in EC50 caused by scoping-factor ([2]; in vivo): 10-12% | increase in EC50 during one- and two-minute spikes of increased MOAA/S score ([2]; in vivo): approximately 30% | ke0 ([2]; in vivo): 13.3 h⁻¹ and 12.17 h⁻¹ | typical Hill coefficient ([2]; in vivo): 4.03 | V4 [3]: 21.59 I | Success rate n/N (%) (ITT) ([4]; 7.0 mg initial / 2.0 mg top-ups (middle dose regimen), 40 patients): 38/40 (95.0%), p = 0.025 | Success rate n/N (%) ([4]; 5.0/3.0 mg): 39/40 (97.5%) | Time to ready for discharge, Mean (SD) ([4]; 5.0/3.0 mg): 13.5 (4.83) mins | Time to fully alert, Mean (SD) ([4]; 5.0/3.0 mg): 13.3 (7.21) mins | Time to Procedure Start, mean (SD) ([4]; 5.0/3.0): 2.65 (1.42) minutes | Success rate n/N (%) ([4]; 7.0/2.0 mg): 38/40 (95.0%) | Time to Procedure Start, mean (SD) ([4]; 7.0/2.0 mg): 3.03 (2.17) minutes | Time to ready for discharge, Mean (SD) ([4]; 7.0/2.0 mg): 14.0 (6.28) mins | Time to fully alert, Mean (SD) ([4]; 7.0/2.0 mg): 11.3 (5.69) mins | Success rate n/N (%) ([4]; 8.0/3.0 mg): 37/40 (92.5%) | Time to Procedure Start, mean (SD) ([4]; 8.0/3.0 mg): 2.23 (1.44) minutes | Time to ready for discharge, Mean (SD) ([4]; 8.0/3.0 mg): 16.8 (7.54) mins | Time to fully alert, Mean (SD) ([4]; 8.0/3.0 mg): 13.6 (7.48) mins | recovery to fully alert [4, 10]: 13.6 min | time to discharge [4, 10]: 16.8 min | related AESIs (adverse events of special interest) ([4]; human, in vivo): 10 | Success rate n/N (%) (ITT) ([4]; in vivo): 95% | patients requiring manual or mechanical ventilation ([4]; in vivo): no patient required manual or mechanical ventilation | time to fully alert compared to Midazolam ([4]; in vivo): shorter | recovery to fully alert [4, 11]: 13.3 min | time to discharge [4, 11]: 13.5 min | recovery to fully alert [4, 12]: 11.3 min | time to discharge [4, 12]: 14 min | Body weight as predictor of systemic clearance [5]: not a statistically significant predictor

CC(C)c1cccc(C(C)C)c1OCOP(=O)(O)O [Fospropofol]
Success rate n/N (%) (procedural sedation [6]; (labelled dose)): 18/26 (69.2%) | Success rate n/N (%) (procedural sedation [7]; 6.5 mg/kg (labelled dose)): 137/158 (86.7%)

Cc1ncc2n1-c1ccc(Cl)cc1C(c1ccccc1F)=NC2 [Midazolam, reference compound]
Success rate n/N (%) (procedural sedation [6]; 0.02 mg/kg): 21/26 (80.8%) | patients who did not respond to treatment and received Propofol as rescue medication ([4]; 2.5/1.0 mg): 25% | Success rate n/N (%) ([4]; 2.5/1.0 mg): 30/40 (75.0%) | Time to Procedure Start, mean (SD) ([4]; 2.5/1.0 mg): 4.80 (3.19) minutes | Time to ready for discharge, Mean (SD) ([4]; 2.5/1.0 mg): 17.1 (7.33) mins | Time to fully alert, Mean (SD) ([4]; 2.5/1.0 mg): 15.2 (7.43) mins | Success rate n/N (%) (procedural sedation [7]; 0.02 mg/kg): 36/52 (69.2%)
